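Compound exposure: 48 hours, 5 concentrations, 96-well plates. TGI marks complete inhibition of growth.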

Some test systems named below: BT-549 breast; CAKI-1 renal; CCRF-CEM leukemia; COLO 205 colon; HCT-15 colon; K-562 leukemia; MCF7 breast; MDA-MB-231 breast; MDA-MB-435; MOLT-4 leukemia; NCI-H23 lung; OVCAR-4 ovarian; OVCAR-5 ovarian; OVCAR-8 ovarian; PC-3 prostate; SNB-75 CNS; T-47D breast; U251 CNS; UACC-257 melanoma.
Holding throughout (assay): NCI tumour cell line growth inhibition, 48 h

Take `Cc1[nH]c2ncn(N)c(=N)c2c1Cc1ccccc1`: the TGI in the assay with BT-549 breast, with CAKI-1 renal, with CCRF-CEM leukemia, with COLO 205 colon, with HCT-15 colon and with K-562 leukemia was over 100 µM in each case. Besides, the TGI in the assay on MCF7 breast, with MDA-MB-231 breast, in the assay on MDA-MB-435, with MOLT-4 leukemia, in the assay with NCI-H23 lung and in the assay with OVCAR-4 ovarian was over 100 µM throughout. For the same compound, the TGI with OVCAR-5 ovarian, in the assay with OVCAR-8 ovarian, in the assay with PC-3 prostate, with SNB-75 CNS, with T-47D breast and with U251 CNS was over 100 µM in each case. This compound also returned a TGI in the assay on UACC-257 melanoma of over 100 µM.

Regarding `C=C1C(=O)OC2C3C(=C)[C@@H](OC(C)=O)CC3C(C)=CC(OC(=O)C(C)(O)C(C)OC(C)=O)[C@@H]12` (stereo partly drawn), the TGI in the assay on BT-549 breast is 26.7 µM; with CAKI-1 renal it was 12.4 µM; in the assay on CCRF-CEM leukemia, 7.51 µM; in the assay on COLO 205 colon it was 15.9 µM; in the assay with HCT-15 colon, 22 µM; in the assay on K-562 leukemia it was 14.8 µM. In addition, the TGI in the assay on MCF7 breast is 22.9 µM; in the assay with MDA-MB-231 breast, 34.1 µM; with MDA-MB-435, 28.3 µM; in the assay with MOLT-4 leukemia, over 100 µM; in the assay on NCI-H23 lung, 27.3 µM; in the assay on OVCAR-4 ovarian, 23.3 µM. For the same compound, the TGI stood at 24.9 µM with OVCAR-5 ovarian; 37.9 µM in the assay on OVCAR-8 ovarian; 30.7 µM with PC-3 prostate; 28.4 µM in the assay on SNB-75 CNS; 39 µM in the assay with T-47D breast; 30.5 µM with U251 CNS. This compound also came in with a TGI in the assay with UACC-257 melanoma of 23.2 µM.

For the compound `Nc1nc(Cl)c(N)c(NCC2(CO)CC(O)C2)n1` (stereo not drawn), the TGI in the assay with BT-549 breast, with CAKI-1 renal, in the assay on CCRF-CEM leukemia, in the assay on COLO 205 colon, in the assay with HCT-15 colon and with K-562 leukemia was over 100 µM in each case. The TGI in the assay on MCF7 breast, with MDA-MB-231 breast, in the assay on MDA-MB-435, with MOLT-4 leukemia, in the assay on NCI-H23 lung and with OVCAR-4 ovarian was over 100 µM throughout. In addition, the TGI in the assay on OVCAR-5 ovarian, in the assay with OVCAR-8 ovarian, in the assay on PC-3 prostate, in the assay on SNB-75 CNS, in the assay with T-47D breast and in the assay with U251 CNS was over 100 µM in each case. The TGI in the assay with UACC-257 melanoma was over 100 µM.

For the compound `O=c1[nH]nc(Cc2ccc(Cl)cc2)n1Nc1ccccc1`, the TGI in the assay on BT-549 breast, with CAKI-1 renal, in the assay with CCRF-CEM leukemia, in the assay on COLO 205 colon, in the assay on HCT-15 colon and in the assay with K-562 leukemia was over 100 µM throughout. The TGI in the assay with MCF7 breast, in the assay on MDA-MB-231 breast, in the assay on MDA-MB-435, with MOLT-4 leukemia, with NCI-H23 lung and in the assay on OVCAR-4 ovarian was over 100 µM each time. For the same compound, the TGI with OVCAR-5 ovarian, in the assay with OVCAR-8 ovarian, in the assay on PC-3 prostate, in the assay on SNB-75 CNS, with T-47D breast and in the assay with U251 CNS was over 100 µM each time. For the same compound, the TGI in the assay on UACC-257 melanoma is over 100 µM.

`O=C1NC(c2ccccc2)C1N(Cc1ccccc1)Cc1ccccc1` (stereo not drawn): the TGI with BT-549 breast, in the assay with CAKI-1 renal, in the assay with CCRF-CEM leukemia, in the assay with COLO 205 colon, in the assay on HCT-15 colon and in the assay on K-562 leukemia was over 100 µM in each case. Further, the TGI with MCF7 breast, with MDA-MB-231 breast, in the assay on MDA-MB-435, with MOLT-4 leukemia, in the assay on NCI-H23 lung and with OVCAR-4 ovarian was over 100 µM in each case. Moreover, the TGI in the assay on OVCAR-5 ovarian, in the assay with OVCAR-8 ovarian, with PC-3 prostate, in the assay with SNB-75 CNS, with T-47D breast and in the assay on U251 CNS was over 100 µM in each case. This compound also showed a TGI with UACC-257 melanoma of over 100 µM.

Take `ClCc1nc2cc(Cl)ccc2o1`: the TGI with BT-549 breast is 28.2 µM; in the assay on CAKI-1 renal it was 3.24 µM; in the assay with CCRF-CEM leukemia, over 25.7 µM; with COLO 205 colon it was 9 µM; in the assay with HCT-15 colon, 16.7 µM; in the assay on K-562 leukemia, over 100 µM. Also, the TGI was 7.65 µM with MCF7 breast; 10.2 µM in the assay on MDA-MB-231 breast; 8.07 µM in the assay on MDA-MB-435; over 100 µM with MOLT-4 leukemia; 24.6 µM with NCI-H23 lung; 3.45 µM in the assay with OVCAR-4 ovarian. Moreover, the TGI was found to be 38.6 µM with OVCAR-5 ovarian; 20 µM with OVCAR-8 ovarian; 19.6 µM with PC-3 prostate; 24.1 µM in the assay on SNB-75 CNS; 5.15 µM in the assay with T-47D breast; 9.13 µM in the assay with U251 CNS. Also, in the assay with UACC-257 melanoma, the TGI worked out at 22.8 µM.

On to `Cc1c(O)c(OC2OC(CO)C(O)C(O)C2O)cc2c1CC[C@@H]1C2(C)C(=O)C[C@]2(C)[C@@H]([C@@](C)(O)C(O)CCC(C)(C)O)[C@H](O)C[C@@]12C` (stereo partly drawn), for which the TGI in the assay on BT-549 breast, in the assay on CAKI-1 renal, in the assay on CCRF-CEM leukemia, with COLO 205 colon, in the assay with HCT-15 colon and in the assay with K-562 leukemia was over 100 µM each time. For the same compound, the TGI in the assay with MCF7 breast, in the assay with MDA-MB-231 breast, in the assay on MDA-MB-435, with MOLT-4 leukemia, with NCI-H23 lung and in the assay with OVCAR-4 ovarian was over 100 µM in each case. Besides, the TGI in the assay with OVCAR-5 ovarian, in the assay on OVCAR-8 ovarian, in the assay on PC-3 prostate, in the assay on SNB-75 CNS, in the assay on T-47D breast and in the assay on U251 CNS was over 100 µM in each case. Moreover, the TGI with UACC-257 melanoma was over 100 µM.

Source of the values: PubChem BioAssay (NCI).
